This note sets out measurements from patent publication US20240092759A1, “Non-Covalent Inhibitors of the Main Protease of SARS-CoV-2 and Methods of Use” (YALE UNIVERSITY, priority 2021, published 2024).

In data set [1] the target is recombinant SARS-Cov-2 M^pro (Severe acute respiratory syndrome coronavirus 2 (2019-nCoV) (SARS-CoV-2), UniProt P0DTD1). Put plainly: biochemical.
Another data set has as its system SARS-CoV-2 replicon. Put plainly: microbe, parasite or virus in culture. The note with it: for IC50: Severe acute respiratory syndrome coronavirus 2, dose-response curves of FIGS. 6A-6B, read-out: IC50, replicon assay, compound alone. The format is cell-based.
The test system of data set [2] is normal human bronchial epithelial cells (NHBE). In words: Cellular cytotoxicity by MTT in normal human bronchial epithelial cells. To be noted: for CC50: read-out: CC50 NHBE, MTT.
The subject of another data set is Vero E6 cells. In words: Cellular cytotoxicity by MTT in Vero E6 cells. To be noted: for CC50: read-out: CC50 Vero E6, absence of virus; for cytotoxicity: Vero E6 and NHBE cells.
Data set [3] deals with infectious SARS-CoV-2 (isolate USA-WA1/2020). Put plainly: Antiviral assay, cytopathic effect by MTT in Vero E6 cells. The format is cell-based. The note with it: for EC50: Severe acute respiratory syndrome coronavirus 2, Vero C1008. In general terms: Cytopathic effects are the visible damage that an infection or toxin causes in cultured cells.
Data set [4] shares this test system. Put plainly: microbe, parasite or virus in culture. The format is cell-based. The note with it: for EC50: Severe acute respiratory syndrome coronavirus 2, Vero C1008, Vero E6 cells, read-out: EC50 Plaque.
Setting [5] is: read-out: IC50 (μM), inhibition of SARS-Cov-2 M^pro, Table 4.
Where [6] appears, read: Vero E6 cells, MOI 0.01, 72 h, NA = not active, read-out: EC50 MTT.
[7] abbreviates: combination with remdesivir, MacSynergy II.
Where [8] appears, read: read-out: IC50 (μM), inhibition of SARS-CoV-2 M^pro, Table 1, 100 nM M^pro, triplicate, perampanel: fluorescence of compound interfered with assay.
[9] abbreviates: footnote b: drop in viral titer/incomplete inhibition.
Where [10] appears, read: IC50 (μM), inhibition of SARS-Cov-2 M^pro, Table 4.

The structures appear in SMILES notation. Where “and” joins values, the source holds several entries; their conditions need not be identical. Equal values may be shown once. Read-outs that look alike come from different tables or passages of the source.

The term IC50 denotes the midpoint of a concentration-inhibition curve. `N#Cc1ccccc1-c1cc(-c2cc(Cl)cc(Cl)c2)c(=O)n(-c2cccnc2)c1` [Compound 9, 2-(3-(3,5-Dichlorophenyl)-2-oxo-2H-[1,3′-bipyridin]-5-yl)benzonitrile]: the results for the IC50 (in data set [1] (IC50); in data set [1] (setting [5]); in the data set on SARS-CoV-2 replicon) were 4.2 µM, 4.02 ± 1.36 µM and 93.8 nM, respectively. Further, in the data set on SARS-CoV-2 replicon (combination with EIDD-1931), the “combination behavior” value is given as “synergistic effect”.

Usually CC50 stands for the concentration at which the toxic effect on the cells reaches its halfway point. One may read the EC50 as the concentration needed to bring the measured effect to its halfway point. `CCCOc1cc(Cl)cc(-c2cc(-c3ccccc3C#N)cn(-c3cccnc3)c2=O)c1` [Compound 13, 2-(3-(3-Chloro-5-propoxyphenyl)-2-oxo-2H-[1,3′-bipyridin]-5-yl)benzonitrile]: the “factor of improvement in potency over 9” value in data set [1] (ratio of IC50 values) is “ca. 30”. Besides, the values for the cytotoxic concentration (CC50) (in data set [2]; in the data set with Vero E6 cells) were 20000 ± 2000 nM and 22000 nM, respectively. Besides, the EC50 was 2500 ± 700 nM in data set [3] (setting [6]) and 2500 nM in data set [3] (read-out: EC50, MTT assay). In addition, in the data set with SARS-CoV-2 replicon (combination with remdesivir), the “combination behavior” value is given as “statistically significant synergistic behavior”. In addition, the antagonism volume in the data set with SARS-CoV-2 replicon (setting [7]) is recorded as 0 μM^2%. Besides, in the data set on SARS-CoV-2 replicon (setting [7]), the mean synergy volume came to 30.8 μM^2%.

With `O=c1[nH]cc(-c2cc(-c3cc(Cl)cc(OCCc4ccccc4)c3)c(=O)n(-c3cccnc3)c2)c(=O)[nH]1` [Compound 29, 5-(3-(3-Chloro-5-phenethoxyphenyl)-2-oxo-2H-[1,3′-bipyridin]-5-yl)pyrimidine-2,4(1H, 3H)-dione], the IC50 in data set [1] (read-out: IC50) was 0.11 µM; in data set [1] (setting [8]), 0.11 ± 0.013 µM.

On to `COc1cc(CCOc2cc(Cl)cc(-c3cc(-c4ccccc4C#N)cn(-c4cccnc4)c3=O)c2)cc(OC)c1` [Compound 30], for which the IC50 in data set [1] (setting [5]) is above 1 µM.

In the case of `Cc1ccccc1COc1cc(Cl)cc(-c2cc(-c3c[nH]c(=O)[nH]c3=O)cn(-c3cccnc3)c2=O)c1` [Compound 31, 5-(3-(3-Chloro-5-((2-methylbenzyl)oxy)phenyl)-2-oxo-2H-[1,3′-bipyridin]-5-yl)pyrimidine-2,4(1H,3H)-dione], the IC50 stood at 0.11 µM in data set [1] (IC50) and 0.1 ± 0.007 µM in data set [1] (setting [8]).

As to `Cc1cccc(COc2cc(Cl)cc(-c3cc(-c4c[nH]c(=O)[nH]c4=O)cn(-c4cccnc4)c3=O)c2)c1` [Compound 32, 5-(3-(3-Chloro-5-((3-methylbenzyl)oxy)phenyl)-2-oxo-2H-[1,3′-bipyridin]-5-yl)pyrimidine-2,4(1H,3H)-dione], the IC50 in data set [1] (IC50) was found to be 0.1 µM; in data set [1] (setting [8]), 0.11 ± 0.035 µM; in data set [1] (setting [5]), 0.11 ± 0.035 µM.

`CCNC(=O)COc1cc(Cl)cc(-c2cc(-c3ccccc3C#N)cn(-c3cccnc3)c2=O)c1` [Compound 33]: in data set [1] (setting [5]), the IC50 lay in the range of 0.5 to 1 µM.

For `O=c1[nH]cc(-c2cc(-c3cc(Cl)cc(OCc4ccccc4F)c3)c(=O)n(-c3cccnc3)c2)c(=O)[nH]1` [Compound 34, 5-(3-(3-Chloro-5-((2-fluorobenzyl)oxy)phenyl)-2-oxo-2H-[1,3′-bipyridin]-5-yl)pyrimidine-2,4(1H,3H)-dione], the IC50 in data set [1] (read-out: IC50) is 0.018 to 0.037 µM; in data set [1] (setting [8]), 0.024 ± 0.007 µM; in data set [1] (setting [5]) it was 0.024 µM.

As for `O=c1[nH]cc(-c2cc(-c3cc(Cl)cc(OCc4cccc(F)c4)c3)c(=O)n(-c3cccnc3)c2)c(=O)[nH]1` [Compound 35, 5-(3-(3-Chloro-5-((3-fluorobenzyl)oxy)phenyl)-2-oxo-2H-[1,3′-bipyridin]-5-yl)pyrimidine-2,4(1H,3H)-dione], the half-inhibitory concentration (IC50) was 0.018 to 0.037 µM in data set [1] (read-out: IC50) and 0.037 µM in data set [1] (setting [5]).

`O=c1[nH]cc(-c2cc(-c3cc(Cl)cc(OCc4c(F)cccc4F)c3)c(=O)n(-c3cccnc3)c2)c(=O)[nH]1` [Compound 36, 5-(3-(3-Chloro-5-((2,6-difluorobenzyl)oxy)phenyl)-2-oxo-2H-[1,3′-bipyridin]-5-yl)pyrimidine-2,4(1H,3H)-dione]: the IC50 in data set [1] (read-out: IC50) was 0.018 to 0.037 µM; in data set [1] (setting [5]) it was 0.036 µM.

On to `O=c1[nH]cc(-c2cc(-c3cc(Cl)cc(OCc4ccccc4Cl)c3)c(=O)n(-c3cccnc3)c2)c(=O)[nH]1` [Compound 37, 5-(3-(3-Chloro-5-((2-chlorobenzyl)oxy)phenyl)-2-oxo-2H-[1,3′-bipyridin]-5-yl)pyrimidine-2,4(1H,3H)-dione], for which the values for the CC50 (in data set [2]; in the data set with Vero E6 cells) were 2000 ± 100 nM and 1700 ± 900 nM, respectively. In addition, the “antiviral activity in the viral plaque assay” value in data set [4] is on record as “showed activity”. In addition, the EC50 in data set [4] (setting [9]) is 11300 nM. For the same compound, in the data set on Vero E6 cells, the “cytotoxicity” value is “greatest cytotoxicity”. In data set [3], the “antiviral activity in the MTT assay” value was “lacked antiviral activity”.

With `N#Cc1ccccc1-c1cc(-c2cc(Cl)cc(OCC3CC3)c2)c(=O)n(-c2cccnc2)c1` [Compound 39, 2-(3-(3-Chloro-5-(cyclopropylmethoxy)phenyl)-2-oxo-2H-[1,3′-bipyridin]-5-yl)benzonitrile], the CC50 (in data set [2]; in the data set on Vero E6 cells) was above 100000 nM throughout. For the same compound, in the data set with Vero E6 cells, the “cytotoxicity” value is “no cytotoxicity to the highest concentration tested (100 μM)”. The EC50 in data set [3] (setting [6]) was 2000 ± 700 nM; in data set [3] (read-out: EC50, MTT assay) it was around 1000 nM.

With `O=c1[nH]cc(-c2cc(-c3cc(Cl)cc(OCC4CC4)c3)c(=O)n(-c3cccnc3)c2)c(=O)[nH]1` [Compound 40, 5-(3-(3-Chloro-5-(cyclopropylmethoxy)phenyl)-2-oxo-2H-[1,3′-bipyridin]-5-yl)pyrimidine-2,4(1H,3H)-dione], in data set [1] (setting [10]), the IC50 is around 290 µM.

Turning to `O=c1[nH]cc(-c2cc(-c3cc(Cl)cc(OCC4CC4)c3)c(=O)n(-c3cccnc3)c2)c(=O)[nH]1` [Compound 43], the IC50 in data set [1] (setting [5]) is 0.037 ± 0.004 µM.

Turning to `O=c1[nH]cc(-c2cc(-c3cc(Cl)c(F)c(OCc4ccccc4Cl)c3)c(=O)n(-c3cccnc3)c2)c(=O)[nH]1` [Compound 44, 5-(3-(3-Chloro-5-((2-chlorobenzyl)oxy)-4-fluorophenyl)-2-oxo-2H-[1,3′-bipyridin]-5-yl)pyrimidine-2,4(1H,3H)-dione], in data set [2], the CC50 worked out at 3500 ± 1000 nM. Moreover, the “antiviral activity in the viral plaque assay” value in data set [4] is given as “showed activity”. For the same compound, in data set [4] (MOI 0.01), the EC50 came out at 840 nM. In the data set with Vero E6 cells, the “cytotoxicity” value is on record as “greatest cytotoxicity” and the CC50 was determined as 1150 ± 500 nM. Moreover, in data set [3], the “antiviral activity in the MTT assay” value is “lacked antiviral activity”.

As to `O=c1[nH]cc(-c2cc(-c3cc(F)c(F)c(OCc4ccccc4F)c3)c(=O)n(-c3cccnc3)c2)c(=O)[nH]1` [Compound 45], the IC50 in data set [1] (setting [5]) stood at 0.03 ± 0.004 µM.

On to `O=c1[nH]cc(-c2cc(-c3cc(Cl)cc(OCc4ccccc4)c3)c(=O)n(-c3cccnc3)c2)c(=O)[nH]1` [Compound 46, 5-(3-(3-(Benzyloxy)-5-chlorophenyl)-2-oxo-2H-[1,3′-bipyridin]-5-yl)pyrimidine-2,4(1H,3H)-dione], for which the figures for the half-maximal cytotoxic concentration (CC50) (in data set [2]; in the data set on Vero E6 cells) were 17500 ± 5500 nM and 12300 ± 7000 nM, respectively. Also, the “antiviral activity in the viral plaque assay” value in data set [4] is “antiviral activity was found”. The EC50 in data set [4] (setting [9]) was 3200 nM.

Take `N#Cc1ccccc1-c1cc(-c2cc(Cl)cc(OCCC(F)(F)F)c2)c(=O)n(-c2cccnc2)c1` [Compound 47, 2-(3-(3-Chloro-5-(3,3,3-trifluoropropoxy)phenyl)-2-oxo-2H-[1,3′-bipyridin]-5-yl)benzonitrile]: in data set [2] (compared with 39), the “cytotoxicity towards the NHBE cells” value is listed as “more cytotoxic”. The figures for the CC50 (in data set [2]; in the data set on Vero E6 cells) were 25000 ± 5000 nM and 22000 ± 8000 nM, respectively.

Take `O=c1[nH]cc(-c2cc(-c3cc(Cl)cc(OCc4ccsc4Cl)c3)c(=O)n(-c3cccnc3)c2)c(=O)[nH]1` [Compound 49]: the IC50 in data set [1] (setting [5]) was determined as 0.0265 ± 0.004 µM.

Consider `O=c1nc(NO)ccn1[C@@H]1O[C@H](CO)C(O)[C@@H]1O` (some centres unmarked) [EIDD-1931, reference compound], for which, in the data set with SARS-CoV-2 replicon, the IC50 is 2230 nM.

For `N#Cc1ccccc1-c1cc(-c2ccccn2)cn(-c2ccccc2)c1=O` [Perampanel, perampanel, reference compound], the half-inhibitory concentration (IC50) in data set [1] (IC50) is 100 to 250 µM and > 100 µM; in data set [1] (IC50 (μM), inhibition of SARS-CoV-2 M^pro, Table 1, 100 nM M^pro, triplicate, perampanel: fluorescence of compound interfered with assay), 100 to 250 µM; in data set [1] (setting [10]), 100 µM.

On to `CCC(CC)COC(=O)[C@H](C)N[P@](=O)(OC[C@H]1O[C@@](C#N)(c2ccc3c(N)ncnn23)[C@H](O)[C@@H]1O)Oc1ccccc1` [remdesivir, reference compound], for which the CC50 in data set [2] was 41000 ± 2000 nM; with Vero E6 cells it was 72000 ± 28000 nM.
